Literature values as cited in patent publication US12622903B2, “Drug products for intranasal administration and uses thereof” (Summit Biosciences Inc., priority 2020, dated 2026).

Test system: opioid overdose

C=CCN1CC[C@]23c4c5ccc(O)c4O[C@H]2C(=O)CC[C@@]3(O)[C@H]1C5 [naloxone, 17-allyl-4,5a-epoxy-3,14-dihydroxymorphinan-6-one]
participants reporting serious adverse effects (DOPE Project participants): < 1% | overdose events reported reversed (of 399 overdose events where naloxone was used, participant reports): 89%
